Laboratory results: EP4603105A1, “PHARMACEUTICAL COMPOSITION CONTAINING CYCLIC COMPOUND HAVING SELECTIVE KRAS INHIBITORY EFFECT AGAINST HRAS AND NRAS” (CHUGAI SEIYAKU KABUSHIKI KAISHA, priority 2022, dated 2024)
Like-named read-outs stand apart in the source and are kept apart here.

Tests used:
[1] = tested on: human lung cancer strain NCI-H441; assay type: cell-based
In short: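 Step one: dispense the test compound in serial DMSO dilutions. Step three: add the reagent and measure […].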

HRAS wild-type protein = HRAS wild-type protein (Homo sapiens, UniProt P01112); test: Binding to HRAS by surface plasmon resonance (SPR), KD and KD ratio to KRAS; details: ratio of KD for HRAS wild-type protein to KD for KRAS
In short: (§1)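 Running buffer contained 10 µM GDP and 10 mM MgCl2 to keep RAS in the GDP state, with 4% DMSO at pH 7.4. Compounds were flowed at 100 µL/min in 75 s steps of rising concentration over captured biotin-Avi RAS at 30°C. Sensorgrams were fitted 1:1 for KD.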

[2] = target: GDP-bound NRAS wild-type protein (Homo sapiens, UniProt P01111); test: Binding to NRAS by surface plasmon resonance (SPR), KD and KD ratio to KRAS; details: ratio of KD for GDP-bound NRAS wild-type protein to KD for KRAS
In short: as §1

[3] = NCI-H441 cells, 4 days, CellTiter-Glo, read-out: NCl-H441 IC50

HRAS wild-type protein, sequence (P01112 whole entry): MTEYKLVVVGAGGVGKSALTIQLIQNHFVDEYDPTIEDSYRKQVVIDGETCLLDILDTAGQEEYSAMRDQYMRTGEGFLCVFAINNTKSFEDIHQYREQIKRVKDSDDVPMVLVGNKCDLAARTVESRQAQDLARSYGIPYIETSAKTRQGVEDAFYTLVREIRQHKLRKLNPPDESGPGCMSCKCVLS
GDP-bound NRAS wild-type protein, sequence (P01111 whole entry): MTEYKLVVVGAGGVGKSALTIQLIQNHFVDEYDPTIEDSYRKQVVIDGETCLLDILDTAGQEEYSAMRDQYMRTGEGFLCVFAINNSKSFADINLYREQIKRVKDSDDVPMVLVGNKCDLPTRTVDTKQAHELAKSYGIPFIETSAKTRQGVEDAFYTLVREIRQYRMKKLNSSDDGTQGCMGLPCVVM

Row | SMILES | IC50 [1, 3] | HRAS /KRAS (HRAS wild-type protein) | NRAS /KRAS [2] | IC50 [1]
1 | CCO[C@@H]1C[C@H]2C(=O)NC3(CC(C)(C)C3)C(=O)N(C)[C@@H](C3CCCC3)C(=O)N(C)[C@H](C(=O)N(C)C)CC(=O)N(C)[C@@H](CC(C)C)C(=O)N[C@@H]([C@@H](C)CC)C(=O)N(C)CC(=O)N(C)[C@H]3C/C=C\CCN(C3=O)[C@@H](Cc3ccc(OC)cc3)C(=O)N(C)CC(=O)N[C@@H](CCc3ccc(C(F)(F)F)c(OC)c3)C(=O)N2C1 [PP2693] | 10.4 nM | B (a compound having 3 or more and less than 10 is denoted as B) | A (a compound having 10 or more and less than 20 is denoted as A) | 
2 | CCO[C@@H]1C[C@H]2C(=O)NC3(CC(C)(C)C3)C(=O)N(C)[C@@H](C3CCCC3)C(=O)N(C)[C@H](C(=O)N(C)C)CC(=O)N(C)[C@@H](CC(C)C)C(=O)N[C@@H]([C@@H](C)CC)C(=O)N(C)CC(=O)N(C)[C@H]3C/C=C\CCN(C3=O)[C@@H](Cc3ccc(C(C)=O)cc3)C(=O)N(C)CC(=O)N[C@@H](CCc3ccc(C(F)(F)F)c(OC)c3)C(=O)N2C1 [PP2694] |  | B (a compound having 3 or more and less than 10 is denoted as B) | A (a compound having 10 or more and less than 20 is denoted as A) | 12 nM
3 | CCO[C@@H]1C[C@H]2C(=O)NC3(CC(C)(C)C3)C(=O)N(C)[C@@H](C3CCCC3)C(=O)N(C)[C@H](C(=O)N(C)C)CC(=O)N(C)[C@@H](CC(C)C)C(=O)N[C@@H]([C@@H](C)CC)C(=O)N(C)CC(=O)N(C)[C@H]3C/C=C\CCN(C3=O)[C@@H](Cc3ccc4c(c3)CCC4(F)F)C(=O)N(C)CC(=O)N[C@@H](CCc3ccc(C(F)(F)F)c(OC)c3)C(=O)N2C1 [PP2695] |  | B (a compound having 3 or more and less than 10 is denoted as B) | A (a compound having 10 or more and less than 20 is denoted as A) | 3.8 nM
4 | CCOC[C@H]1C(=O)N[C@@H]([C@@H](C)CC)C(=O)N(C)CC(=O)N(C)[C@H]2C/C=C\CCN(C2=O)[C@@H](Cc2ccc(C)cc2F)C(=O)N(C)CC(=O)N[C@@H](CCc2ccc(C(F)(F)F)c(OC)c2)C(=O)N2C[C@@H](C)C[C@H]2C(=O)NC2(CC(C)(C)C2)C(=O)N(C)[C@@H](C2CCCC2)C(=O)N(C)[C@H](C(=O)N(C)CC)CC(=O)N1C [PP2697] | 42.8 nM | A (a compound having 10 or more and less than 20 is denoted as A) | A (a compound having 10 or more and less than 20 is denoted as A) | 
5 | CCOC[C@H]1C(=O)N[C@@H]([C@@H](C)CC)C(=O)N(C)CC(=O)N(C)[C@H]2C/C=C\CCN(C2=O)[C@@H](Cc2ccc(C)c(F)c2)C(=O)N(C)CC(=O)N[C@@H](CCc2ccc(C(F)(F)F)c(OC)c2)C(=O)N2C[C@@H](C)C[C@H]2C(=O)NC2(CC(C)(C)C2)C(=O)N(C)[C@@H](C2CCCC2)C(=O)N(C)[C@H](C(=O)N(C)CC)CC(=O)N1C [PP2698] | 30.4 nM | A (a compound having 10 or more and less than 20 is denoted as A) | A (a compound having 10 or more and less than 20 is denoted as A) | 
6 | CCOC[C@H]1C(=O)N[C@@H]([C@@H](C)CC)C(=O)N(C)CC(=O)N(C)[C@H]2C/C=C\CCN(C2=O)[C@@H](Cc2ccc(C(C)(F)F)cc2)C(=O)N(C)CC(=O)N[C@@H](CCc2ccc(C(F)(F)F)c(OC)c2)C(=O)N2C[C@@H](C)C[C@H]2C(=O)NC2(CC(C)(C)C2)C(=O)N(C)[C@@H](C2CCCC2)C(=O)N(C)[C@H](C(=O)N(C)CC)CC(=O)N1C [PP2699] | 14.2 nM | B (a compound having 3 or more and less than 10 is denoted as B) | A (a compound having 10 or more and less than 20 is denoted as A) | 
7 | CCOC[C@H]1C(=O)N[C@@H]([C@@H](C)CC)C(=O)N(C)CC(=O)N(C)[C@H]2C/C=C\CCN(C2=O)[C@@H](Cc2ccc(C3CC3)cc2)C(=O)N(C)CC(=O)N[C@@H](CCc2ccc(C(F)(F)F)c(OC)c2)C(=O)N2C[C@@H](C)C[C@H]2C(=O)NC2(CC(C)(C)C2)C(=O)N(C)[C@@H](C2CCCC2)C(=O)N(C)[C@H](C(=O)N(C)CC)CC(=O)N1C [PP2700] | 23.1 nM | B (a compound having 3 or more and less than 10 is denoted as B) | A (a compound having 10 or more and less than 20 is denoted as A) | 
8 | CCOC[C@H]1C(=O)N[C@@H]([C@@H](C)CC)C(=O)N(C)CC(=O)N(C)[C@H]2C/C=C\CCN(C2=O)[C@@H](Cc2ccc(C(C)C)cc2)C(=O)N(C)CC(=O)N[C@@H](CCc2ccc(C(F)(F)F)c(OC)c2)C(=O)N2C[C@@H](C)C[C@H]2C(=O)NC2(CC(C)(C)C2)C(=O)N(C)[C@@H](C2CCCC2)C(=O)N(C)[C@H](C(=O)N(C)CC)CC(=O)N1C [PP2701] | 21.7 nM | A (a compound having 10 or more and less than 20 is denoted as A) | A (a compound having 10 or more and less than 20 is denoted as A) | 
9 | CCOC[C@H]1C(=O)N[C@@H]([C@@H](C)CC)C(=O)N(C)CC(=O)N(C)[C@H]2C/C=C\CCN(C2=O)[C@@H](Cc2ccc(OC)cc2)C(=O)N(C)CC(=O)N[C@@H](CCc2ccc(C(F)(F)F)c(OC)c2)C(=O)N2C[C@@H](C)C[C@H]2C(=O)NC2(CC(C)(C)C2)C(=O)N(C)[C@@H](C2CCCC2)C(=O)N(C)[C@H](C(=O)N(C)CC)CC(=O)N1C [PP2702] | 21.4 nM | B (a compound having 3 or more and less than 10 is denoted as B) | A (a compound having 10 or more and less than 20 is denoted as A) | 
10 | CCOC[C@H]1C(=O)N[C@@H]([C@@H](C)CC)C(=O)N(C)CC(=O)N(C)[C@H]2C/C=C\CCN(C2=O)[C@@H](Cc2ccc(C(C)=O)cc2)C(=O)N(C)CC(=O)N[C@@H](CCc2ccc(C(F)(F)F)c(OC)c2)C(=O)N2C[C@@H](C)C[C@H]2C(=O)NC2(CC(C)(C)C2)C(=O)N(C)[C@@H](C2CCCC2)C(=O)N(C)[C@H](C(=O)N(C)CC)CC(=O)N1C [PP2703] | 80.5 nM | A (a compound having 10 or more and less than 20 is denoted as A) | AA (a compound having 20 or more is denoted as AA) | 
11 | CCOC[C@H]1C(=O)N[C@@H]([C@@H](C)CC)C(=O)N(C)CC(=O)N(C)[C@H]2C/C=C\CCN(C2=O)[C@@H](Cc2ccc3c(c2)CCC3(F)F)C(=O)N(C)CC(=O)N[C@@H](CCc2ccc(C(F)(F)F)c(OC)c2)C(=O)N2C[C@@H](C)C[C@H]2C(=O)NC2(CC(C)(C)C2)C(=O)N(C)[C@@H](C2CCCC2)C(=O)N(C)[C@H](C(=O)N(C)CC)CC(=O)N1C [PP2704] | 10.7 nM | B (a compound having 3 or more and less than 10 is denoted as B) | B (a compound having 3 or more and less than 10 is denoted as B) | 
12 | CCO[C@@H]1C[C@H]2C(=O)NC3(CC(C)(C)C3)C(=O)N(C)[C@@H](CC3CCC3)C(=O)N(C)[C@H](C(=O)N(C)C)CC(=O)N(C)[C@@H](COC)C(=O)N[C@@H]([C@@H](C)CC)C(=O)N(C3CC3)CC(=O)N(C)[C@H]3C/C=C\CCN(C3=O)[C@@H](Cc3ccc(C(F)(F)F)cc3)C(=O)N(C)CC(=O)N[C@@H](CCc3cc(F)c(C(F)(F)F)c(F)c3)C(=O)N2C1 [PP2769] |  | A (a compound having 10 or more and less than 20 is denoted as A) | AA (a compound having 20 or more is denoted as AA) | 133 nM
13 | CCC[C@H]1C(=O)N[C@@H]([C@@H](C)CC)C(=O)N(C2CC2)CC(=O)N(C)[C@H]2C/C=C\CCN(C2=O)[C@@H](Cc2ccc(C(F)(F)F)cc2)C(=O)N(C)CC(=O)N[C@@H](CCc2ccc(C(F)(F)F)c(OC)c2)C(=O)N2C[C@H](OCC)C[C@H]2C(=O)NC2(CC(C)(C)C2)C(=O)N(C)[C@@H](CC2CCC2)C(=O)N(C)[C@H](C(=O)N(C)C)CC(=O)N1C [PP2770] |  | A (a compound having 10 or more and less than 20 is denoted as A) | A (a compound having 10 or more and less than 20 is denoted as A) | 137 nM
14 | CCO[C@@H]1C[C@H]2C(=O)NC3(CC(C)(C)C3)C(=O)N(C)[C@@H](CC3CCC3)C(=O)N(C)[C@H](C(=O)N(C)C)CC(=O)N(C)[C@@H](COC)C(=O)N[C@@H]([C@@H](C)CC)C(=O)N(C3CC3)CC(=O)N(C)[C@H]3C/C=C\CCN(C3=O)[C@@H](Cc3ccc(C(F)(F)F)cc3)C(=O)N(C)CC(=O)N[C@@H](CCc3ccc(C(F)(F)F)c(OC)c3)C(=O)N2C1 [PP2771] |  | A (a compound having 10 or more and less than 20 is denoted as A) | AA (a compound having 20 or more is denoted as AA) | 148 nM
15 | CCO[C@@H]1C[C@H]2C(=O)NC3(CCC3)C(=O)N(C)[C@@H](CC(C)(C)C)C(=O)N(C)[C@H](C(=O)N3CCCC3)CC(=O)N(C)[C@@H](CC)C(=O)N[C@@H]([C@@H](C)CC)C(=O)N(C)CC(=O)N(C)[C@H]3C/C=C\CCN(C3=O)[C@@H](CC3CCCCC3)C(=O)N(C)CC(=O)N[C@@H](CCc3cc(F)c(C(F)(F)F)c(F)c3)C(=O)N2C1 [PP2772] |  | B (a compound having 3 or more and less than 10 is denoted as B) | B (a compound having 3 or more and less than 10 is denoted as B) | 28.1 nM
16 | CCO[C@@H]1C[C@H]2C(=O)NC3(CC(C)(C)C3)C(=O)N(C)[C@@H](CC(C)(C)C)C(=O)N(C)[C@H](C(=O)N(C)C)CC(=O)N(C)[C@@H](C(C)C)C(=O)N[C@@H]([C@@H](C)CC)C(=O)N(C)CC(=O)N(C)[C@H]3C/C=C\CCN(C3=O)[C@@H](Cc3ccc(C(F)(F)F)cc3)C(=O)N(C)CC(=O)N[C@@H](CCc3ccc(C(F)(F)F)c(OC)c3)C(=O)N2C1 [PP2773] |  | B (a compound having 3 or more and less than 10 is denoted as B) | B (a compound having 3 or more and less than 10 is denoted as B) | 8.6 nM
